Assay results: patent US20120219615A1, “Therapeutic Use of a TLR Agonist and Combination Therapy” (The Trustees of the University of Pennsylvania, priority 2010, published 2012)
Read-outs that look alike come from different tables or passages of the source.

Test: Phase I clinical study: pharmacokinetics after subcutaneous administration
Type: in vivo
Conditions: human; for DN AUC(0-∞) / DN Cmax: dose normalized; for DN AUC(0-∞) / DN Cmax / AUC(0-inf) / Cmax / half-life / Tmax: first dose; for AUC(0-inf) / Cmax / half-life / Tmax: plasma, sc
Procedure: Study Procedures: VTX-2337 was administered weekly via subcutaneous injection on Days 1, 8, and 15 of a 28-day dosing cycle for two cycles. Using a modified Fibonacci dose-escalation scheme, successive cohorts received doses ranging from 0.1 mg/m^2 to 3.9 mg/m^2 of VTX-2337. Plasma samples were collected for pharmacokinetic analysis after the first dose of the first treatment cycle and for pharmacodynamic analyses after the first dose of the first and second treatment cycles.
Samples were collected at 0.5, 1, 1.5, 2, 4, 8, and 24 hours after subcutaneous administration of the first dose of VTX-2337 and plasma levels of VTX-2337 were quantified by LC-MS/MS. VTX-2337 was rapidly absorbed into systemic circulation with the mean Tmax occurring between 0.5 and 0.8 hours following dosing. […] Peak plasma levels (Cmax) and total systemic exposure both increased with increasing dose. Dose normalized (DN) values for Cmax and AUC(0-∞) were calculated.

DN AUC(0-∞) (s.c., 0.1 mg/m^2): 31.2 (ng · hr/mL)/(mg/m^2)
DN Cmax (s.c., 0.1 mg/m^2): 15.2 (ng/ml)/(mg/m^2)
DN AUC(0-∞) (s.c., 0.2 mg/m^2): 23.7 (ng · hr/mL)/(mg/m^2)
DN Cmax (s.c., 0.2 mg/m^2): 9.9 (ng/ml)/(mg/m^2)
DN AUC(0-∞) (s.c., 0.4 mg/m^2): 27.4 (ng · hr/mL)/(mg/m^2)
DN Cmax (s.c., 0.4 mg/m^2): 16.7 (ng/ml)/(mg/m^2)
DN AUC(0-∞) (s.c., 0.8 mg/m^2): 24.0 (ng · hr/mL)/(mg/m^2)
DN Cmax (s.c., 0.8 mg/m^2): 7.4 (ng/ml)/(mg/m^2)
DN AUC(0-∞) (s.c., 1.3 mg/m^2): 22.7 (ng · hr/mL)/(mg/m^2)
DN Cmax (s.c., 1.3 mg/m^2): 8.4 (ng/ml)/(mg/m^2)
DN AUC(0-∞) (s.c., 2.0 mg/m^2): 29.6 (ng · hr/mL)/(mg/m^2)
DN Cmax (s.c., 2.0 mg/m^2): 7.3 (ng/ml)/(mg/m^2)
DN AUC(0-∞) (s.c., 2.8 mg/m^2): 28.7 (ng · hr/mL)/(mg/m^2)
DN Cmax (s.c., 2.8 mg/m^2): 7.1 (ng/ml)/(mg/m^2)
DN AUC(0-∞) (s.c., 3.9 mg/m^2): 20.8 (ng · hr/mL)/(mg/m^2)
DN Cmax (s.c., 3.9 mg/m^2): 5.9 (ng/ml)/(mg/m^2)
pharmacokinetics over the dose ranges evaluated (s.c., 0.1-3.9 mg/m^2): appeared to be linear
AUC(0-inf) (0.1 mg/m^2 (~0.0022 mg/kg)): 3.12 ng·h/mL
Cmax (0.1 mg/m^2 (~0.0022 mg/kg)): 1.52 ng/mL
AUC(0-inf) (0.2 mg/m^2 (~0.0054 mg/kg)): 4.74 ng·h/mL
Cmax (0.2 mg/m^2 (~0.0054 mg/kg)): 1.97 ng/mL
AUC(0-inf) (0.4 mg/m^2 (~0.011 mg/kg)): 10.9 ng·h/mL
Cmax (0.4 mg/m^2 (~0.011 mg/kg)): 6.69 ng/mL
AUC(0-inf) (0.8 mg/m^2 (~0.022 mg/kg)): 19.2 ng·h/mL
Cmax (0.8 mg/m^2 (~0.022 mg/kg)): 5.93 ng/mL
AUC(0-inf) (1.3 mg/m^2 (~0.035 mg/kg)): 29.5 ng·h/mL
Cmax (1.3 mg/m^2 (~0.035 mg/kg)): 10.9 ng/mL
AUC(0-inf) (2.0 mg/m^2 (~0.054 mg/kg)): 59.1 ng·h/mL
Cmax (2.0 mg/m^2 (~0.054 mg/kg)): 14.6 ng/mL
AUC(0-inf) (2.8 mg/m^2 (~0.076 mg/kg)): 80.3 ng·h/mL
Cmax (2.8 mg/m^2 (~0.076 mg/kg)): 19.9 ng/mL
AUC(0-inf) (3.9 mg/m^2 (~0.105 mg/kg)): 81.1 ng·h/mL
Cmax (3.9 mg/m^2 (~0.105 mg/kg)): 23 ng/mL
half-life (s.c., 0.1 mg/m^2 (~0.0022 mg/kg), read-out: T1/2 (converted)): 1.7 h
Tmax (s.c., 0.1 mg/m^2 (~0.0022 mg/kg), read-out: Tmax): 0.5 h
half-life (s.c., 0.2 mg/m^2 (~0.0054 mg/kg), read-out: T1/2 (converted)): 3 h
Tmax (s.c., 0.2 mg/m^2 (~0.0054 mg/kg), read-out: Tmax): 0.8 h
half-life (s.c., 0.4 mg/m^2 (~0.011 mg/kg), read-out: T1/2 (converted)): 6.6 h
Tmax (s.c., 0.4 mg/m^2 (~0.011 mg/kg), read-out: Tmax): 0.5 h
half-life (s.c., 0.8 mg/m^2 (~0.022 mg/kg), read-out: T1/2 (converted)): 5.3 h
Tmax (s.c., 0.8 mg/m^2 (~0.022 mg/kg), read-out: Tmax): 0.5 h
half-life (s.c., 1.3 mg/m^2 (~0.035 mg/kg), read-out: T1/2 (converted)): 5.6 h
Tmax (s.c., 1.3 mg/m^2 (~0.035 mg/kg), read-out: Tmax): 0.5 h
half-life (s.c., 2.0 mg/m^2 (~0.054 mg/kg), read-out: T1/2 (converted)): 6.7 h
Tmax (s.c., 2.0 mg/m^2 (~0.054 mg/kg), read-out: Tmax): 0.5 h
half-life (s.c., 2.8 mg/m^2 (~0.076 mg/kg), read-out: T1/2 (converted)): 5.7 h
Tmax (s.c., 2.8 mg/m^2 (~0.076 mg/kg), read-out: Tmax): 0.5 h
half-life (s.c., 3.9 mg/m^2 (~0.105 mg/kg), read-out: T1/2 (converted)): 5.3 h
Tmax (s.c., 3.9 mg/m^2 (~0.105 mg/kg), read-out: Tmax): 0.5 h
Tmax (s.c., across cohorts 0.1-3.9 mg/m^2, read-out: mean Tmax): 0.5 to 0.8 h
half-life (s.c., across cohorts 0.1-3.9 mg/m^2, read-out: mean half-life (t1/2)): 1.7 to 6.7 h
SMILES: CCCN(CCC)C(=O)C1=Cc2ccc(-c3ccc(C(=O)N4CCCC4)cc3)cc2N=C(N)C1 [VTX-2337, 2-amino-N,N-dipropyl-8-(4-(pyrrolidine-1-carbonyl)phenyl)-3H-benzo[b]azepine-4-carboxamide]
